Test [1] has as its target T1, human L-Selectin-IgG-chimera (Homo sapiens, UniProt P14151).
T1 construct: IgG (chimera partner)
In words: Sialyl Lewis X Tyrosine Sulfate Assay (sLex TSA), L-selectin. Particulars: inhibition of binding of sLex-tyrosine sulfate polyacrylamide ligand complex to selectin chimera. Here is the method:
(§1) Compounds of the present invention are assayed on a molecular level for their ability to inhibit the binding of P-, L-, or E-selectin chimeric molecules to sLe^x and tyrosinesulfate residues linked to a polymeric matrix as a PSGL-1 substitute. Selected IC50-values are determined.
(§2) Microtiter plates are coated overnight in carbonate buffer pH9.6 with goat anti human Fc mAB (10 μg/ml). After washing in assay buffer (25 mM 4-(2-hydroxyethyl)-1-piperazineethanesulfonic acid (HEPES), 150 mM NaCl, 1 mM CaCl2 pH7.4) and blocking (3% bovine serum albumin (BSA) in assay buffer) plates are incubated for 2 h at 37° C. with human P-Selectin-IgG-chimera (0.61 nM respectively 150 ng/mL) or human L-Selectin-IgG-chimera (0.61 nM respectively 89 ng/mL) or human E-Selectin-IgG-chimera (0.61 nM respectively 131 ng/mL). 5 μl of sLe^x-tyrosine sulfate polyacrylamide (1 mg/ml) carrying 15% sLe^x, 10% Tyrosine-sulfate and 5% biotin is complexed with 20 μl Streptavidin-Peroxidase solution (1 mg/ml) and 25 μl assay buffer without CaCl2. For use in the assay, the ligand complex is diluted 1:10000 in assay buffer and further diluted 1:1 with varying amounts of compounds in assay buffer incl. 2% DMSO. This mixture is added to the wells precoated with E- or P-selectin. After incubation for 2 h at 37° C., wells are washed for six times with in assay buffer incl. 0.005% Polyoxyethylenesorbitan monolaurate (TWEEN 20), developed for 10-15 min with 20 μl 3,3′,5,5′-tetramethylbenzidine (TMB)/H2O2 substrate solution and stopped with 20 μl 1M H2SO4. Bound sLe^x-Tyrosine sulfate ligand complex is determined by measuring optical density at 450 nm vs. 620 nm in a Fusion alpha-FP reader (sold from Packard Bioscience, Dreieich, Germany).

The target of test [2] is T2, human E-Selectin-IgG-chimera (Homo sapiens, UniProt P16581). In words: Flow chamber assay, cell adhesion and rolling under flow conditions, E-selectin. In kind it is cell-based. Conditions: 125 μM compound, HL-60 cells, flow shear 1 dyne/cm^2, dish coated 2.5 μg/ml E-selectin-IgG chimera. How it is done: (§3) Flow Chamber Assay/Cell Adhesion and Rolling Under Flow Conditions
(§4) To assess the capability of compounds to inhibit cell binding under dynamic conditions resembling the flow in a blood vessel, flow chamber assays addressing/testing binding of HL-60 cells/various cell lines to P-selectin, L-selectin and E-selectin chimeric molecules are performed.
(§5) Cell attachment under flow conditions are determined using a parallel flow chamber system. A 35 mm polystyrene culture dish is coated for 1 hour at room temperature with coating buffer (50 mM tris-(hydroxymethyl)aminomethane buffer (Tris), 150 mM NaCl, 2 mM CaCl2; pH 7.4) containing human E- or P-selectin-IgG chimera at concentrations of 2.5 μg/ml or 10 μg/ml, respectively. After removal of the coating solution non specific binding sites are blocked for an additional hour with 1% BSA in coating buffer at room temperature. After washing with assay buffer (“Roswell Park Memorial Institute 1640” (RPMI 1640)+10 mM HEPES) the dish is fitted into a parallel plate laminar flow chamber (sold from Glycotech, Rockville, Md.) and mounted on an inverted phase-contrast microscope (sold from Olympus, Hamburg, Germany) equipped with a CCD camera (JVC) that is connected to a PC. Employing a peristaltic pump (sold from Ismatec, Wertheim-Mondfeld, Germany) the re-circulating system is equilibrated with assay buffer containing 125 μM compound or vehicle control (DMSO). Cells (1 million/ml) are added to the chamber and allowed to distribute for 2 minutes at a high flow rate. The flow rate is then decreased resulting in a calculated flow shear of 1 dyne/cm^2. Video sequences of 10 low power fields are digitally recorded after 5 minutes continuous flow. The percentage of inhibition is calculated from the mean number of cells per field that attached to the coated dish surface in the presence versus absence of compound […].
(§6) Data from Flow Chamber Assay for E- and P-Selectin

Test [3] has as its target T3, human P-Selectin-IgG-chimera (Homo sapiens, UniProt P16109). In words: Flow chamber assay, cell adhesion and rolling under flow conditions, P-selectin. In kind it is cell-based. Conditions: 125 μM compound, HL-60 cells, flow shear 1 dyne/cm^2, dish coated 10 μg/ml P-selectin-IgG chimera. Here is the method:
as §3, §4, §5, §6

Test [4] has as its target T2, human E-Selectin-IgG-chimera. In words: Sialyl Lewis X Tyrosine Sulfate Assay (sLex TSA), E-selectin. On the set-up: IgG (chimera partner). Conditions: inhibition of binding of sLex-tyrosine sulfate polyacrylamide ligand complex to selectin chimera. How it is done: as §1, §2
Test [5] addresses T3, human P-Selectin-IgG-chimera. In words: Sialyl Lewis X Tyrosine Sulfate Assay (sLex TSA), P-selectin. More on the design: IgG (chimera partner). Conditions: inhibition of binding of sLex-tyrosine sulfate polyacrylamide ligand complex to selectin chimera. Here is the method:
as §1, §2

Molecules are shown by their SMILES.

T3 sequence (P16109 with tags, fused parts or gaps limits assumed): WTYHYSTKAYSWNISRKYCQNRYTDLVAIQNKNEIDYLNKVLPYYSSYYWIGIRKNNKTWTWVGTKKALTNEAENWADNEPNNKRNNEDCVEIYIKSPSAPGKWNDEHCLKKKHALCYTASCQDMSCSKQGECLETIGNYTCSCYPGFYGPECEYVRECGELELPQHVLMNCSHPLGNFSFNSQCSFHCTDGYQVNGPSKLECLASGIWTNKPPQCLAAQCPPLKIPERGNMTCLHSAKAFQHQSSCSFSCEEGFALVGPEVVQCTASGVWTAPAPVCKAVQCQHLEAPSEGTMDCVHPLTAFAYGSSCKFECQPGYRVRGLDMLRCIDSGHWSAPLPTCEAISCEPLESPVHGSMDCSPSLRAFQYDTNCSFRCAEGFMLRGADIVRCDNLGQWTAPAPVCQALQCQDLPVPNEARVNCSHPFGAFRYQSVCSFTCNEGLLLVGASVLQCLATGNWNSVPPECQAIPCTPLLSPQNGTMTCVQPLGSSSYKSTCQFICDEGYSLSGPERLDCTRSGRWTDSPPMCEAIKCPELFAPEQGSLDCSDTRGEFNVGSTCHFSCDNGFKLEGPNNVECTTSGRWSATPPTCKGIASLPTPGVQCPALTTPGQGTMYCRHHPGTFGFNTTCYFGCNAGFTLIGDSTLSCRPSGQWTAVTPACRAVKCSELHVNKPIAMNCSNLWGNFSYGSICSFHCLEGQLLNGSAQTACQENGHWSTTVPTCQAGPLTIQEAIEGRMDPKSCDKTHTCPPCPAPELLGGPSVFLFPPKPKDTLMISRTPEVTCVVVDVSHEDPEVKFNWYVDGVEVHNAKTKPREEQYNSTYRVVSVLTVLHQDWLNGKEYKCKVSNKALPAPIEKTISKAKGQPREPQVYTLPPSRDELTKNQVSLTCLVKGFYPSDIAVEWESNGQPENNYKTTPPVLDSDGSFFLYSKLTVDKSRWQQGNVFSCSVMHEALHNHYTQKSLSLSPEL
T1 sequence (P14151 with tags, fused parts or gaps limits assumed): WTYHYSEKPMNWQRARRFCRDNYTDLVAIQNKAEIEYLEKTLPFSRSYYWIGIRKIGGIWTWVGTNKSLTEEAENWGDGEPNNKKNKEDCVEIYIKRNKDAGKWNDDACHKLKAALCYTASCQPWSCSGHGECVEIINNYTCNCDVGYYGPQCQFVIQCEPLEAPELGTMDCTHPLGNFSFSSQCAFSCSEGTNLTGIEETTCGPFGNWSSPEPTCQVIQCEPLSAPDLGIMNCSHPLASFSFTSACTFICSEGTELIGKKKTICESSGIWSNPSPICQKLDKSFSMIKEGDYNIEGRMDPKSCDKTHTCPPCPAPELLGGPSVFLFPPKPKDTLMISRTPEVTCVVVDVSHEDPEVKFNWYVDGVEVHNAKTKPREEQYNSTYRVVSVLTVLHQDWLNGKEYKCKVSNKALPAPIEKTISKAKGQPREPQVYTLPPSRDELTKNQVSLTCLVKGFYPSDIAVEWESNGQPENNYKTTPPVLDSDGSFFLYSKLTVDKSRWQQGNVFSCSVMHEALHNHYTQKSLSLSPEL
T2 sequence (P16581 with tags, fused parts or gaps limits assumed): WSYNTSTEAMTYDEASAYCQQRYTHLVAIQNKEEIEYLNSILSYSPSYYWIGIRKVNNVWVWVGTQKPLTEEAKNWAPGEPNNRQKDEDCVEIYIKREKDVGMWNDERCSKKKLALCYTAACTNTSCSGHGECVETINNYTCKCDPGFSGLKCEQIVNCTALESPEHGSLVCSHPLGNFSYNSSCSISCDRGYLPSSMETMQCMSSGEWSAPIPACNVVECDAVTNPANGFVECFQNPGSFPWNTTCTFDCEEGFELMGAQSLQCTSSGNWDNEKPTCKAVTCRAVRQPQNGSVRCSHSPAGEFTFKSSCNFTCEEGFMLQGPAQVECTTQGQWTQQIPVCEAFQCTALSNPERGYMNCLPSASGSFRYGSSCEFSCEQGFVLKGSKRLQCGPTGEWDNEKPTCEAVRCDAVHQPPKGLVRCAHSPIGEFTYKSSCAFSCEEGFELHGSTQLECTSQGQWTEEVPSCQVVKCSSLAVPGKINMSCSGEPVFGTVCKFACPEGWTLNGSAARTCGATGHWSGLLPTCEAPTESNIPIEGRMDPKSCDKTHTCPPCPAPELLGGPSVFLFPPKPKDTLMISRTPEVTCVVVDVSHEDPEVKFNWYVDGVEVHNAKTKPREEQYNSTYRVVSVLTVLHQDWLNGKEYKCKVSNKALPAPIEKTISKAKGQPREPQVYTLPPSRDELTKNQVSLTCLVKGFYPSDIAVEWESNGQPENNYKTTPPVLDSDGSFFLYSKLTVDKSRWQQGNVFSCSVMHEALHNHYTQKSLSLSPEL

With `O=C(O)Cc1ccc(-c2ccccc2NC(=O)Cc2c(O)cc(O)cc2O)s1` [Compound 25, (5-{2-[2-(2,4,6-Trihydroxy-phenyl)-acetylamino]-phenyl}-thiophen-2-yl)-acetic acid], the IC50 (as a rule, the concentration needed to halve the response being measured) was 95.9 µM in test [1], 105 µM in test [4] and 87.9 µM in test [5]. Besides, the “E-Selectin [Ratio]: normalized ratio of %-inhibition of compound divided by %-inhibition of bimosiamose” value in test [2] is 0.94 Ratio. In test [3], the “P-Selectin [Ratio]: normalized ratio of %-inhibition of compound divided by %-inhibition of bimosiamose” value was 1.65 Ratio.

As for `O=C(O)Cc1cccc(-c2cc(CCCCCCc3ccc(O[C@H]4O[C@H](CO)[C@@H](O)[C@H](O)[C@@H]4O)c(-c4cccc(CC(=O)O)c4)c3)ccc2O[C@H]2O[C@H](CO)[C@@H](O)[C@H](O)[C@@H]2O)c1` [Bimosiamose, bimosiamose, reference compound], in test [1], the IC50 was > 500 µM.

With `O=C(Nc1cccc(C(F)(F)F)c1)c1cccc(-c2c(O)cc(O)cc2O)c1` [Compound 66, 2′,4′,6′-Trihydroxy-biphenyl-3-carboxylic acid (3-trifluoromethyl-phenyl)-amide], in test [2], the “E-Selectin [Ratio]: normalized ratio of %-inhibition of compound divided by %-inhibition of bimosiamose” value is listed as 1.47 Ratio. For the same compound, in test [3], the “P-Selectin [Ratio]: normalized ratio of %-inhibition of compound divided by %-inhibition of bimosiamose” value is reported as 1.19 Ratio.

With `O=C(O)Cc1ccc(-c2ccccc2NC(=O)c2cccc(-c3c(O)cc(O)cc3O)c2)s1` [Compound 63, (5-{2-[(2′,4′,6′-Trihydroxy-biphenyl-3-carbonyl)-amino]-phenyl}-thiophen-2-yl)-acetic acid], the IC50 was found to be 17.4 µM in test [1], 21.9 µM in test [4] and 17.4 µM in test [5]. In addition, in test [2], the “E-Selectin [Ratio]: normalized ratio of %-inhibition of compound divided by %-inhibition of bimosiamose” value was 1.23 Ratio. Besides, in test [3], the “P-Selectin [Ratio]: normalized ratio of %-inhibition of compound divided by %-inhibition of bimosiamose” value is recorded as 0.87 Ratio.

For `O=C(Nc1ccccc1-c1cccs1)c1cccc(-c2c(O)cc(O)cc2O)c1` [Compound 65, 2′,4′,6′-Trihydroxy-biphenyl-3-carboxylic acid (2-thiophen-2-yl-phenyl)-amide], the values for the IC50 in test [1], in test [4] and in test [5] were 15.5 µM, 28.1 µM and 8.2 µM, respectively. For the same compound, the “E-Selectin [Ratio]: normalized ratio of %-inhibition of compound divided by %-inhibition of bimosiamose” value in test [2] is 1.13 Ratio. For the same compound, the “P-Selectin [Ratio]: normalized ratio of %-inhibition of compound divided by %-inhibition of bimosiamose” value in test [3] came out at 0.99 Ratio.

For `O=C(O)Cc1ccc(-c2cccc(NC(=O)c3cccc(-c4c(O)cc(O)cc4O)c3)c2)s1` [Compound 64, (5-{3-[(2′,4′,6′-trihydroxy-biphenyl-3-carbonyl)-amino]-phenyl}-thiophen-2-yl)-acetic acid], the IC50 in test [1] is 6.3 µM; in test [4], 5.7 µM; in test [5], 6 µM. For the same compound, in test [2], the “E-Selectin [Ratio]: normalized ratio of %-inhibition of compound divided by %-inhibition of bimosiamose” value was found to be 1.06 Ratio. In addition, in test [3], the “P-Selectin [Ratio]: normalized ratio of %-inhibition of compound divided by %-inhibition of bimosiamose” value was determined as 1.23 Ratio.

Consider `Cc1oc(-c2ccc(NC(=O)c3cccc(-c4c(O)cc(O)cc4O)c3)cc2)cc1C(=O)O` [Compound 60, 2-Methyl-5-{4-[(2′,4′,6′-trihydroxy-biphenyl-3-carbonyl)-amino]-phenyl}-furan-3-carboxylic acid], for which the 50% inhibitory concentration (IC50) in test [1] was 6.1 µM; in test [4] it was 7.8 µM; in test [5], 5.2 µM. In addition, the “E-Selectin [Ratio]: normalized ratio of %-inhibition of compound divided by %-inhibition of bimosiamose” value in test [2] is on record as 1.05 Ratio. Besides, the “P-Selectin [Ratio]: normalized ratio of %-inhibition of compound divided by %-inhibition of bimosiamose” value in test [3] came to 0.99 Ratio.

`O=C(O)c1cccc(NC(=O)c2cccc(-c3c(O)cc(O)cc3O)c2)c1` [Compound 67, 3-[(2′,4′,6′-Trihydroxy-biphenyl-3-carbonyl)-amino]-benzoic acid]: the results for the half-inhibitory concentration (IC50) in test [1], in test [4] and in test [5] were 25.2 µM, 27.3 µM and 23.3 µM, respectively. Besides, the “E-Selectin [Ratio]: normalized ratio of %-inhibition of compound divided by %-inhibition of bimosiamose” value in test [2] was found to be 0.79 Ratio. For the same compound, the “P-Selectin [Ratio]: normalized ratio of %-inhibition of compound divided by %-inhibition of bimosiamose” value in test [3] amounted to 0.95 Ratio.

Consider `Cc1oc(-c2ccc(NC(=O)Cc3c(O)cc(O)cc3O)cc2)cc1C(=O)O` [Compound 19, 2-Methyl-5-{4-[2-(2,4,6-trihydroxy-phenyl)-acetylamino]-phenyl}-furan-3-carboxylic acid], for which the results for the IC50 in test [1], in test [4] and in test [5] were 22.1 µM, 12.4 µM and 20.7 µM, respectively. Moreover, the “E-Selectin [Ratio]: normalized ratio of %-inhibition of compound divided by %-inhibition of bimosiamose” value in test [2] is 0.75 Ratio. Besides, the “P-Selectin [Ratio]: normalized ratio of %-inhibition of compound divided by %-inhibition of bimosiamose” value in test [3] worked out at 1.27 Ratio.

With `O=C(Nc1ccccc1-c1ccc(C(=O)O)s1)c1cccc(-c2c(O)cc(O)cc2O)c1` [Compound 26, 5-{2-[(2′,4′,6′-trihydroxy-biphenyl-3-carbonyl)-amino]-phenyl}-thiophene-2-carboxylic acid], the IC50 in test [1] was 28.2 µM; in test [4], 33.3 µM; in test [5] it was 27.8 µM. The “E-Selectin [Ratio]: normalized ratio of %-inhibition of compound divided by %-inhibition of bimosiamose” value in test [2] was 1.11 Ratio. Besides, the “P-Selectin [Ratio]: normalized ratio of %-inhibition of compound divided by %-inhibition of bimosiamose” value in test [3] worked out at 0.77 Ratio.

As to `O=C(Cc1c(O)cc(O)cc1O)Nc1cccc(C(=O)O)c1` [Compound 18, 3-[2-(2,4,6-Trihydroxy-phenyl)-acetylamino]-benzoic acid], the IC50 in test [1] is 35.1 µM; in test [4], 41.2 µM; in test [5], 37.1 µM. Besides, in test [2], the “E-Selectin [Ratio]: normalized ratio of %-inhibition of compound divided by %-inhibition of bimosiamose” value is recorded as 0.80 Ratio. Further, in test [3], the “P-Selectin [Ratio]: normalized ratio of %-inhibition of compound divided by %-inhibition of bimosiamose” value came to 1.07 Ratio.

The values are drawn from patent publication US7919532B2, “Hydroxylated aromatic compounds” (Revotar Biopharmaceuticals AG, priority 2005, dated 2011).
